Patent US12054562B2, “Cell-permeable inhibitory agent and methods of use thereof in treatment of cognitive and mood disorders” (priority 2015, dated 2024)

Assays:
[1] = tested on: α5GABAA receptor cell-surface expression; test: Receptor cell-surface ELISA assay in cultured hippocampal neurons; type: cell-based, mouse; settings: for etomidate-induced increase in α5GABAA receptor surface expression: peptide 2 μM, 24 hrs, astrocyte-conditioned medium (etomidate 1 μM, 1 hr)
Experimental: This experimental cell culture model was used to test the effects of the inhibitory peptide on an overexpression of α5GABAA receptors on the surface of neurons. The medium from astrocytes that were treated with etomidate (1 μM, 1 hr) (conditioned medium) was collected, and the medium bathing cultured hippocampal neurons was exchanged with the astrocyte-conditioned medium. The cells were incubated at 37° C., 5% CO2 with the peptide or scramble peptide (2 μM). After 24 hrs incubation, the cells were used for receptor cell-surface ELISA assay. The cells were fixed in 4% paraformaldehyde for 20 min in the presence (permeabilized) or absence (non-permeabilized) of 1% Triton-X100. The cells, after 3 times wash with cold PBS and blocked with 5% bovine album solution, were incubated with a α5 antibody (Santa Cruz Biotech Inc.) at 4° C. overnight. The next day the cells were thoroughly washed with PBS and incubated with the horseradish peroxidase (HRP)-conjugated secondary antibody for 2 hrs. With HRP substrate added and color developed in the medium, the results were determined with microplate reader.
The cell surface expression of α5 subunit was presented as the ratio of the colorimetric reading under non-permeabilized conditions to those permeabilized conditions. Consistent with the previous report, etomidate increases α5GABAA receptor surface expression. This increase was blocked by the specific peptide, but not the scramble peptide (FIG. 6A).
For astrocyte culture, cortical astrocytes were isolated from embryonic day 18 (E18) mouse embryos. Cells were allowed to grow to confluence in MEM and 10% fetal bovine serum (FBS; Life Technologies, Grand Island, New York) for 14 d. Cells were then enzymatically dissociated with trypsin-EDTA (0.05%; Life Technologies, Grand Island, New York), and passaged three times to obtain a nearly pure astrocytic culture. Astrocytes were then plated at a density of 25,000 cells per dish. […]

[2] = tested on: GABAA receptor-mediated tonic current in hippocampal neurons; test: Whole-cell voltage-clamp recordings of tonic current in astrocyte-neuron co-cultures; type: cell-based, mouse; settings: for tonic current: neurons grown in co-cultures
radixin = test: Western blot of radixin phosphorylation in hippocampus of treated mice; type: in vivo, mouse; settings: etomidate 8 mg/kg, i.p., hippocampi 24 hrs later
Experimental: We next asked whether injection of inhibitory peptide, when administered to mice in vivo by I.P. injection, reduced the level of α5GABAA receptors expressed in the hippocampus. To test whether the peptide reduces α5GABAA receptor cell-surface expression in vivo, we took advantage of a mouse model that we developed recently (Zurek, et al., 2014), in which up-regulation of α5GABAA receptor cell surface expression causes memory deficits. Adult mice (22-25 g) were treated with etomidate (8 mg/kg, i.p.), and sacrificed 24 hrs later according to a protocol approved by the Animal Care Committee of the University of Toronto. The hippocampi were collected and subject to experiments. We first measured the level of radixin phosphorylation, because radixin phosphorylation is required for the recruitment of α5GABAA receptors to extrasynaptic sites of the neurons (Loebrich et al., 2006; Hausrat et al., 2015). The antibody against threonine at 564 of radixin, which is specific for radixin phosphorylation involving α5GABAA receptor extra-synaptic trafficking, was used for these studies (Choii et al., 2015; Hausrat et al., 2015). […] We next examined whether the inhibitory peptide prevented α5GABAA receptor from trafficking to surface membrane in vivo by studying ex vivo brain slices. […]

[3] = tested on: etomidate-induced memory deficits in mice; test: Novel object recognition task, prevention paradigm; type: in vivo, mouse; settings: Etom 8 mg/kg i.p., NOR next day
Excerpt: The novel object recognition task involves the presentation of two identical objects for visual inspection (in the case of humans and non-human primates) and exploration in the case of rodents. After a delay, one of the original objects is presented together with a new (novel) object. Humans and animals normally spend time more time looking at (or in the case of mice, exploring) the novel object. Indeed, the test relies on the innate preference of humans and animals for novelty. The inspection or interaction time differs only if the familiar object is recognized. Otherwise, the subject spends an equal amount of time inspecting both objects. […]
In the present study, mice were handled two times a day, 5 min each before start of behavioral experiments. Object recognition was assessed in a circle opaque chamber with the diameter of 38.5 cm in a regular lit room. […] Movement and interaction with the objects was recorded with a video camera that was mounted above the chamber. The exploratory behavior and mouse activity was analyzed blindly by a person with a good training and the software EthoVision, XT v11.5 provided by the Noldus Information Tech Inc., (Leesburg VA, USA). […] Memory was assessed by measuring the novelty preference ratio (i.e., the ratio of time spent exploring the novel object to the time spent exploring both objects). […]

[4] = target: T1, α5 subunit-radixin interaction (Mus musculus, UniProt P26043); test: Co-immunoprecipitation and Western blot of α5 subunit-radixin coupling in hippocampal tissue lysate; type: binding; settings: 20 μM peptide without TAT sequence, one hour incubation
T1 construct: tissue lysate prepared from the hippocampus of adult mice; from tissue; host or cells: hippocampus of adult mice (C57BL/6J×SvEv)
T1 sequence (P26043 whole entry): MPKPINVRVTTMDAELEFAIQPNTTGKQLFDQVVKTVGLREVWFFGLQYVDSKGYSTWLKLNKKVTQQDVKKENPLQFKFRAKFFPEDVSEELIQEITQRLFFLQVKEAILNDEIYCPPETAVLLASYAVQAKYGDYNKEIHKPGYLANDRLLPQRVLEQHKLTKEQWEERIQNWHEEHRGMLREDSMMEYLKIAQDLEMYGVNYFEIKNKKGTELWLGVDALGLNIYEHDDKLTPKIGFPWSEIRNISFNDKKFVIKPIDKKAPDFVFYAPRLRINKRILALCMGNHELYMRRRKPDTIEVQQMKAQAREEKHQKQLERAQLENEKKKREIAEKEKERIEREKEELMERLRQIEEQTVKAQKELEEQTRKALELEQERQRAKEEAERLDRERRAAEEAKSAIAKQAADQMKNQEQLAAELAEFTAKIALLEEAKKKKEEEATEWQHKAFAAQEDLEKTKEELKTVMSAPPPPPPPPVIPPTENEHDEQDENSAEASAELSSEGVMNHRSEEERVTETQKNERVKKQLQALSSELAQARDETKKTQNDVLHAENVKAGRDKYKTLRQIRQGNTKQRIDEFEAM
Experimental: The experiments used tissue lysate prepared from the hippocampus of adult mice (C57BL/6J×SvEv, 2-4 month old, male). Hippocampal tissue was homogenized in ice-cold RIPA buffer (20 mM Tris-HCL, pH 7.5, 150 mM NaCl, 1 mM Na2EDTA, 1 mM EGTA, 1% NP-40, 1% sodium deoxycholate, 2.5 mM sodium pyrophosphate, 1 mM β-glycerophosphate) supplemented with 1 mM sodium orthovanadate and 1% protease inhibitor cocktail and 1% phosphatase inhibitor cocktail (Roche Diagnostics, GmbH, Manheim Germany). The tissue lysate was subsequently spun at 14,000 rpm for 30 min with the Microfuge 22R Centrifuge (Beckman Coulter™, Brea, California, US). The supernatant was collected and frozen at −20 C°. The next day, the supernatant, after thawing, was re-centrifuged at 14,000 rpm for another 30 min to clear the potential undissolved or pellet substances. After spinning twice, the supernatant was collected for subsequent experiments.
One hour following the incubation, the antibodies (2-4 μg) against either α5 subunit (cat #sc—31417, Santa Cruz Biotechnology, Inc., 10410 Finnell St. Dallas, TX, 75220, USA) or radixin (cat #ab91312, Abcam Inc., c/o 913860, PO Box 4090 Stn A, Toronto, ON M5W 0E9), or 4 μg of non-specific IgG protein (cat #sc—2028, Santa Cruz Biotechnology, Inc., 10410 Finnell St. Dallas, TX, 75220, USA), were added to the lysate solution. […]

Molecule: CCOC(=O)c1cncn1[C@H](C)c1ccccc1 [etomidate]
- α5GABAA receptor surface expression ([1]; medium from astrocytes treated with etomidate 1 μM, 1 hr, 24 hrs incubation): increases
- amplitude of the tonic current ([2]; etomidate 1 μM, 1 h, measured 24 h after treatment): caused an increase
- radixin phosphorylation (pThr564) (radixin): increases
- total radixin protein level (radixin): does not alter
- preference for the novel object (NOR) [3]: showed no preference

Molecule: FC(F)OC(Cl)C(F)(F)F (stereo not shown) [isoflurane]
- tonic current ([2]; ISO, 250 μM): persistent increase

Molecule: Cc1ncc2n1-c1ccc(Cl)cc1C(c1ccccc1F)=NC2 [midazolam]
- tonic current ([2]; MDZ, 200 nM): persistent increase

Molecule: CC(C)c1cccc(C(C)C)c1O [propofol]
- tonic current ([2]; Prop, 3 μM): persistent increase

Molecule: FCOC(C(F)(F)F)C(F)(F)F [sevoflurane]
- tonic current ([2]; SEVO, 266 μM): persistent increase

Molecule: AWDGKKAL (listed as Homo sapiens) [Peptide C8, N-terminal truncated peptide, positions 350-357]
- etomidate-induced increase in α5GABAA receptor surface expression [1]: prevented

Molecule: DGKKAL (listed as Homo sapiens) [Peptide C6, N-terminal truncated peptide, positions 352-357]
- etomidate-induced increase in α5GABAA receptor surface expression [1]: did not

Molecule: GWAWDGKKAL (listed as Homo sapiens) [Peptide C10, N-terminal truncated peptide, positions 348-357]
- etomidate-induced increase in α5GABAA receptor surface expression [1]: prevented

Molecule: KKAL (listed as Homo sapiens) [Peptide C4, N-terminal truncated peptide, positions 354-357]
- etomidate-induced increase in α5GABAA receptor surface expression [1]: did not

Molecule: KRGWAWDGKKAL (listed as Homo sapiens) [α5pΔN4]
- etomidate-induced increase in α5GABAA receptor surface expression [1]: retains the inhibitory function

Molecule: NYFTKRGWAWDG (listed as Homo sapiens) [α5pΔC4]
- etomidate-induced increase in α5GABAA receptor surface expression [1]: lost the inhibitory function

Molecule: TYFGRKNALWKAWKGD (Scramble peptide) [reference compound]
- association between α5 subunit and radixin [4]: did not reduce this association
